Measurements from patent US6794494B1, “Cancerous disease modifying antibodies” (Arius Research, Inc., priority 2003, dated 2004).

Experiments:
HT-29 cells [1] = conditions: human
SW620 cells [2] = conditions: human
DLD-1 cells = conditions: 5 days; four experiments in triplicate; concentration (10A304.7, Anti-Fas, 107.3, MPC-11 20 μg/mL; c225 5 μg/mL; Cycloheximide 100 μM)
Lovo cells = conditions: 5 days; four experiments in triplicate; concentration (10A304.7, Anti-Fas, 107.3, MPC-11 20 μg/mL; c225 5 μg/mL; Cycloheximide 100 μM)
SW1116 cells [3] = conditions: 5 days; four experiments in triplicate; concentration (10A304.7, Anti-Fas, 107.3, MPC-11 20 μg/mL; c225 5 μg/mL; Cycloheximide 100 μM)
BxPC-3 cells = conditions: 5 days; four experiments in triplicate; concentration (10A304.7, Anti-Fas, 107.3, MPC-11 20 μg/mL; c225 5 μg/mL; Cycloheximide 100 μM)
MB-231 cells = conditions: 5 days; four experiments in triplicate; concentration (10A304.7, Anti-Fas, 107.3, MPC-11 20 μg/mL; c225 5 μg/mL; Cycloheximide 100 μM)
MCF-7 cells = conditions: 5 days; four experiments in triplicate; concentration (10A304.7, Anti-Fas, 107.3, MPC-11 20 μg/mL; c225 5 μg/mL; Cycloheximide 100 μM)
PC-3 cells = conditions: 5 days; four experiments in triplicate; concentration (10A304.7, Anti-Fas, 107.3, MPC-11 20 μg/mL; c225 5 μg/mL; Cycloheximide 100 μM)
OVCAR cells = conditions: 5 days; four experiments in triplicate; concentration (10A304.7, Anti-Fas, 107.3, MPC-11 20 μg/mL; c225 5 μg/mL; Cycloheximide 100 μM)
HT-29 cells [4] = experiment: Live/Dead cytotoxicity assay, purified antibody; conditions: 5 days; four experiments in triplicate; concentration (10A304.7, Anti-Fas, 107.3, MPC-11 20 μg/mL; c225 5 μg/mL; Cycloheximide 100 μM)
SW620 cells [5] = experiment: Live/Dead cytotoxicity assay, purified antibody; conditions: 5 days; four experiments in triplicate; concentration (10A304.7, Anti-Fas, 107.3, MPC-11 20 μg/mL; c225 5 μg/mL; Cycloheximide 100 μM)
SW1116 cells [6] = experiment: Live/Dead cytotoxicity assay, hybridoma supernatant; conditions: hybridoma supernatant or controls, 5 days
colorectal cancer = conditions: cited from earlier work

Question: For `C[C@@H]1C[C@@H]([C@H](O)CC2CC(=O)NC(=O)C2)C(=O)[C@@H](C)C1` [Cycloheximide], which “Cytotoxicity (%) HT-29 Average” value (HT-29 cells [1]) is on record?
Answer: 23%

Question: What about the “Cytotoxicity (%) SW620 Average” value (SW620 cells [2]) of the same molecule?
Answer: −2%

Question: What about the “Cytotoxicity above background, Colon DLD-1” value (DLD-1 cells) of the same molecule?
Answer: ++++ (4/4 experiments with 15% cytotoxicity above background (++++))

Question: What about the “Cytotoxicity above background, Colon Lovo” value (Lovo cells) of the same molecule?
Answer: ++++ (4/4 experiments with 15% cytotoxicity above background (++++))

Question: And the “Cytotoxicity above background, Colon SW1116” value (SW1116 cells [3])?
Answer: ++++ (4/4 experiments with 15% cytotoxicity above background (++++))

Question: And the “Cytotoxicity above background, Pancreas BxPC-3” value (BxPC-3 cells)?
Answer: ++++ (4/4 experiments with 15% cytotoxicity above background (++++))

Question: And the “Cytotoxicity above background, Breast MB-231” value (MB-231 cells)?
Answer: ++++ (4/4 experiments with 15% cytotoxicity above background (++++))

Question: What about the “Cytotoxicity above background, Breast MCF-7” value (MCF-7 cells) of the same molecule?
Answer: ++++ (4/4 experiments with 15% cytotoxicity above background (++++))

Question: What about the “Cytotoxicity above background, Prostate PC-3” value (PC-3 cells) of the same molecule?
Answer: ++++ (4/4 experiments with 15% cytotoxicity above background (++++))

Question: And the “Cytotoxicity above background, Ovary OVCAR” value (OVCAR cells)?
Answer: ++++ (4/4 experiments with 15% cytotoxicity above background (++++))

Question: And the “Cytotoxicity above background, Colon HT-29” value (HT-29 cells [4])?
Answer: ++++ (4/4 experiments with 15% cytotoxicity above background (++++))

Question: And the “Cytotoxicity above background, Colon SW820” value (SW620 cells [5])?
Answer: ++++ (4/4 experiments with 15% cytotoxicity above background (++++))

Question: And the “Cytotoxicity (%) SW1116 Average” value (SW1116 cells [6])?
Answer: 17%

B1: 17-1A: antibody with some specificity for adenocarcinomas, tested in colorectal cancer clinical trials (antibody, chains of the INN, looked up, V domains shown)
VH: QVQLQQSGAELVRPGTSVKVSCKASGYAFTNYLIEWVKQRPGQGLEWIGVINPGSGGTNYNEKFKGKATLTADKSSSTAYMQLSSLTSDDSAVYFCARDGPWFAYWGQGTLVTVSA
VL: NIVMTQSPKSMSMSVGERVTLTCKASENVVTYVSWYQQKPEQSPKLLIYGASNRYTGVPDRFTGSGSATDFTLTISSVQAEDLADYHCGQGYSYPYTFGGGTKLEIK
Question: Which “clinical response, protocols using additional cyclophosphamide” value (colorectal cancer; 52 patients, with cyclophosphamide) does the source give for B1 here?
Answer: only one complete response and two minor responses among 52 patients

Question: What about the “clinical response, Phase 2 clinical trials” value (colorectal cancer; over 60 patients) of the same molecule?
Answer: only one patient having a partial response
